According to patent publication US6787612B1, “Resin derivatization method and uses thereof” (Dendreon Corporation, priority 1998, dated 2004):

Tests used:
[1] = molecular target: urokinase (Homo sapiens, UniProt P00749); test: urokinase inhibitory activity in in vitro assays; format: biochemical; conditions: for urokinase inhibitory activity: in vitro assays
[2] = tested on: thrombin; conditions: in vitro assays

SMILES | urokinase inhibitory activity [1] | specific inhibitory activity toward urokinase [1] | thrombin inhibitory activity [2]
C[C@H](NC(=O)[C@@H](CO)NCCCc1ccccc1)C(=O)N[C@H](C=O)CCCNC(=N)N.O=C(O)C(F)(F)F [Example 26, N-alpha-(3-phenylpropyl)-D-seryl-alanyl-argininal, trifluoroacetate salt] | shown to have urokinase inhibitory activity |  | 
N=C(N)NCCCC(C=O)NC(=O)C1CCN1C(=O)C(CO)NS(=O)(=O)c1ccccc1.O=C(O)C(F)(F)F [Example 14, benzenesulfonyl-D-seryl-azetidyl-argininal, trifluoroacetate salt] | shown to have urokinase inhibitory activity | demonstrates specific inhibitory activity toward urokinase | 
N=C(N)NCCCC(C=O)NC(=O)CN1CCCC(NS(=O)(=O)Cc2ccccc2)C1=O (stereo not shown) [Example 8, Benzylsulfonamido-6Lactam-Gly-Argininal] |  |  | shown to have thrombin inhibitory activity
